# Results reported in EP0010299A1, “Pharmaceutical composition useful for the treatment of hypercholesteremia” (Merck & Co., Inc., priority 1978, dated 1980).
# Values joined by “and” are separate entries in the source; they are usually repeats but may differ in a detail not shown here. Equal values may be shown once.
# Columns and labels:
# [1] = tested on: plasma cholesterol; experiment: Combination of compound (II) with cholestyramine in dogs, plasma cholesterol; format: in vivo, Male beagles
# Method: Male beagles, ranging in weight from 7 to 14 kg. (average 11 kg.), were fed a semi-synthetic diet six weeks prior to the start of the experiment and serum cholesterol levels determined colorimetrically each week in order to obtain base-line values for each dog. At the start of the treatment, animals were divided into three treatment groups. Group A (4 dogs) received 25 mg./kg./day of compound (II) mixed in the diet. Group B (4 dogs) received 12 g./dog/day of cholestyramine mixed' in the diet. Group C (5 dogs) was the untreated control. Treatment was for four weeks, and plasma cholesterol was determined two times per week. After four weeks a combination of compound (II) and cholestyramine was given to dogs in Groups A and B mixed in the diet at 25 mg./kg. and 12 g./dog/day respectively for an additional four weeks. Cholesterol levels were detorminod two times per week during this period.
# [2] = biological target: T1, HMG-CoA reductase (Rattus norvegicus, UniProt P51639); details: reductase enzyme; no unit printed (molar concentration); read-out: ED50 in the inhibition test; cited from earlier work
# T1 sequence (P51639 1-887): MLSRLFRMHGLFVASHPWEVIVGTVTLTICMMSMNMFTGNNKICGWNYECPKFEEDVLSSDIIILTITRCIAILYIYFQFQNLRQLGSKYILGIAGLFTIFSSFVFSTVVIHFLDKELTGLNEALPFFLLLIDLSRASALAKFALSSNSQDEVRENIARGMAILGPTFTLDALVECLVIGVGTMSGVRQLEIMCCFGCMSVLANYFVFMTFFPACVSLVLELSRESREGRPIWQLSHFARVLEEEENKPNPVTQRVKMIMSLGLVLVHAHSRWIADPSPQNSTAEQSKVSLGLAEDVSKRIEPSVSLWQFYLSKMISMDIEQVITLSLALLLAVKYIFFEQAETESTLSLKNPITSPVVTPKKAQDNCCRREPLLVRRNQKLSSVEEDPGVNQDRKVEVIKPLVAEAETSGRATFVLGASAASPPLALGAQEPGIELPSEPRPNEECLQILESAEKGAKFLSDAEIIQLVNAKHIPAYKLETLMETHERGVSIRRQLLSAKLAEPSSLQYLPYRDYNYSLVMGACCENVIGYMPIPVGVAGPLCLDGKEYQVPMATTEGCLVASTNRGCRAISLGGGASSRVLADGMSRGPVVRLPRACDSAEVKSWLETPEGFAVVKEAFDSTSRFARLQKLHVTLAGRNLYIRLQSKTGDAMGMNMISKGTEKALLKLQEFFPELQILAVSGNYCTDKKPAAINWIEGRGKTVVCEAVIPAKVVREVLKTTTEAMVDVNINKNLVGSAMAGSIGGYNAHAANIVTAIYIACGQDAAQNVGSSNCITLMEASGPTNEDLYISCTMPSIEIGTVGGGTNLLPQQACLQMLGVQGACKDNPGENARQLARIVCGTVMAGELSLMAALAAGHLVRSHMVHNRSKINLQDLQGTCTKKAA
# [3] = tested on: serum cholesterol; details: acutely treated rat; Endo et al. 1976; cited from earlier work
# [4] = tested on: serum sterol levels; details: Bensch et al. 1978, cited from earlier work
# [5] = tested on: HMG-CoA reductase; details: fed rats three hours following the administration; Bensch et al. 1978; cited from earlier work
# [6] = Group A average (4 dogs), compound (II) 25 mg./kg./day mixed in the diet, 4 weeks
# [7] = Group A, individual dogs, compound (II) 25 mg./kg./day mixed in the diet, 4 weeks
structure (smiles),measurement,setting,value
"CCC(C)C(=O)OC1CCC=C2C=CC(C)C(CCC3CC(O)CC(=O)O3)C21 (centres unmarked) [compound (II), 1,2,3,7,8,8a-hexahydro-7-methyl-8-[2-(3,4,5,6-tetra-hydro-4-hydroxy-6-oxo-2H-pyran-2-yl]ethyl)-1-naphthyl 2-methyl butanoate]",reduction in plasma cholesterol level plateauing by four weeks,"[1]; Fig. 1, Group A, 25 mg./kg./day of compound (II)",36 % of control
same,"PLASMA CHOLESTEROL, 4 Weeks, % change from Start, average",[1]; [6],-35.6%
same,"PLASMA CHOLESTEROL, 4 Weeks, average",[1]; [6],82.5 mg/dL
same,"PLASMA CHOLESTEROL, 4 Weeks",[1]; [7],76 mg./dl and 70 mg./dl and 92 mg./dl (2×)
same,"PLASMA CHOLESTEROL, 4 Weeks, % change from Start",[1]; [7],-36.7% and -30.7% and -40.4% and -34.3%
same,"decrease of plasma cholesterol, average","[1]; four weeks single agent in the diet: compound (II) 25 mg./kg. (Group A), cholestyramine 12 g./dog/day (Group B)",35.6%
same,IC50,[2],~0.01 µM
same,serum cholesterol levels,[3],reduced
same,liver or liver microsomal cholesterol concentration,[4],no change
same,effect on serum sterol levels,[4]; compared with fed or fasted controls,no effect
same,HMG-CoA reductase,[5],marked increase
